Experimental data published in publication PMC7934871 (JCI Insight, 2021).
No end group written: not given here.

What was measured:
cancer cells = test: Confocal microscopy of peptide localisation; type: cell-based; settings: 1 μM, 1 hour
Protocol: (§1) Figure 8 PS-Gp130 and PS-MYC blocking peptides efficiently internalize into tumor cells to exert their functions. (A) For 1 hour 1 μM of PS-conjugated MYC (PS-MYC) and Gp130 (PS-Gp130) were incubated with cancer cells. PS-scramble MYC (PS-SC-MYC) was used as a control for PS-MYC. The peptide uptake was visualized by confocal microscopy and quantified by flow cytometry. Data are representative of 3 independent experiments (n = 3). (B) Upper panel: The binding of PS-Gp130 and STAT3 was examined by immunoprecipitation and Western blotting. PO-Gp130 was used as a control. For 4 hours prior to harvest, 1 μM of peptide was incubated with cells. Lower panel: PS-Gp130 inhibits IL-6–induced phosphorylation of STAT3 and p44/42 but not EGF-mediated signaling. The cells were preincubated with PS-Gp130 for 2 hours and then stimulated with 20 ng/mL of IL-6 or 30 ng/mL of EGF for 30 minutes before harvest and Western blotting. (C) Gene expression of STAT3 targets was examined by quantitative PCR after the treatment with 1 μM of PS-Gp130 with or without IL-6 stimulation as described above. Data shown are 3 independent experiments (n = 3); SD is shown. Unpaired Student’s t test; ***P < 0.005; **P < 0.01; *P < 0.05. (D) A total of 1 μM of PS-SC-MYC or PS-MYC was incubated with cells for 48 hours before the gene expression of MYC targets was examined by quantitative PCR. […]

[1] = mouse, in vivo
Protocol: Supplemental Figure 10 (related to Figure 3). The systemic toxicity of PS-acet.-peptide.
The bodyweight (A), blood count (B) and organ morphology (H&E staining; spleen, kidney and liver) (C) of the mice (n=3) treated with HBSS (1), PS-oligo (2), naïve peptide (3), PO-peptide (4) or PS-peptide (5) every other day at 1 mg/kg (per treatment) for 3 weeks.
Individual value of each mouse is shown as a dot on the graph. The red lines on each graph in (B) indicate the normal ranges. Blood count was done by a veterinary hematology analyzer. The images shown in (C) are the represented H&E section from three mice (n=3). Enlarged view are shown below as indicated. Scale bar, 50 µm.
Aftabizadeh and Li et al., Figure S10
Supplemental Figure 12 (related to Figure 6).
(A) Amino acid sequences of phosphorothioated (*, PS) DNA oligonucleotide-modified Gp130 (PS-Gp130), MYC (PS-MYC) and scrambled MYC (PS-SC-MYC) peptides. PS-Gp130 peptide spans 9 amino acids of Gp130 protein (amino acids […]). PS-MYC peptide contains 9 amino acids of Max protein (amino acids 77-85).
(B and C) The bodyweight (B, n=5) and blood count (C, n=3) of the mice in each treatment group was measured at the end point. Individual value of each mouse is shown as a dot on the graph. The red lines on each graph indicate the normal ranges.
Aftabizadeh and Li et al., Figure S12

MYC target genes = test: Gene expression of MYC targets by quantitative PCR; type: cell-based; settings: 1 μM, 48 hours, n = 3
Protocol: as §1, with “Lower panel: PS-Gp130 inhibits IL-6–induced phosphorylation of STAT3 and p44/42 but not EGF-mediated signaling. The cells were preincubated with PS-Gp130 for 2 hours and then stimulated with 20 ng/mL of IL-6 or 30 ng/mL of EGF for 30 minutes before harvest and Western blotting.” left out, “Data shown are 3 independent experiments (n = 3); SD is shown. Unpaired Student’s t test; ***P < 0.005; **P < 0.01; *P < 0.05.” left out
Total RNA was extracted from cultured or tumor tissues using RNeasy kit (QIAGEN), according to manufacturer’s instruction. After cDNA synthesis using iScript cDNA Synthesis kit (Bio-Rad), samples were analyzed using pairs of primers specific for CASP9, CASP3, CASP8, BIRC5, BCL2L1, MYC, TP53, VEGF, IL1B, SERPIN3, FGA, CDK4, CCND2, CDKN2A, CDKN2B, GADD45A, mCD274, mMmp9, and mBirc5, as indicated. […]

Substance: PS-MYC: PS-conjugated peptide corresponding to leucine zipper segment of MAX (amino acids 77–85) (KNHTHQQDI; also: phosphorothioate oligonucleotide conjugate; UniProt P61244 77-85, looked up, fragment)
- intracellular localisation / retention of peptide (cancer cells): retained in the nucleus
- blood count (anemia) [1]: minor anemia
- expression of MYC-mediated cell cycle and survival genes (MYC target genes): markedly downregulated
- expression of MYC-suppressed target genes (MYC target genes): upregulating
